Legend:
[1] = molecular target: CB2 receptor (Homo sapiens, UniProt P34972); conditions: cited from earlier work
[2] = molecular target: T1, CB2 receptor (Mus musculus, UniProt P47936); experiment: Fluorescence imaging of live DBT cells (2D4 CB2-expressing clone and wild type) and competition study; type: cell-based; conditions: 5 μM, control for non-specific binding due to the dye (FIG. 2)
T1 construct: expressed in transfected cells; host or cells: DBT mouse astrocytoma cells, 2D4 clone; wild-type DBT cells lack CB2
T1 sequence (P47936 whole entry): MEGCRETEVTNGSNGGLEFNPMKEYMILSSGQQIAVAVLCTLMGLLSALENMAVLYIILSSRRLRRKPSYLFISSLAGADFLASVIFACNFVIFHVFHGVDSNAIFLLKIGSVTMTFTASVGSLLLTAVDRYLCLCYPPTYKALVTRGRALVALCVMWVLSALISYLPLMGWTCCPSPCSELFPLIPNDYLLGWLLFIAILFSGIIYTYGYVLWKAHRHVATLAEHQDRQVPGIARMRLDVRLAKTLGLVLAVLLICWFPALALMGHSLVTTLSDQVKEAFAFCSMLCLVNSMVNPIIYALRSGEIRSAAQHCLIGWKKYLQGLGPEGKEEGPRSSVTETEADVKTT
Description: To test whether NIRmbc94 reliably binds to the CB2 receptor, we already had in place a system wherein the receptor was both absent and present.

Sequence of CB2 receptor (Homo sapiens, UniProt P34972) (P34972 whole entry): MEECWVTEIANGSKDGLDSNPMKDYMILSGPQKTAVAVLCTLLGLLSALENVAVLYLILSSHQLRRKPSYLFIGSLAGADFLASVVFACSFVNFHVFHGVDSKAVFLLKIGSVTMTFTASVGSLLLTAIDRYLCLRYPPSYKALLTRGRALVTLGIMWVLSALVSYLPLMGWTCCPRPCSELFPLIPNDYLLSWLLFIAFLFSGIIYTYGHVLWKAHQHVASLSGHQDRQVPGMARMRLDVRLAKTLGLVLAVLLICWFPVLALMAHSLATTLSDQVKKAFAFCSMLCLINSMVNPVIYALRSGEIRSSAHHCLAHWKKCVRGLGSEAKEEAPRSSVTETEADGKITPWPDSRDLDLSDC

Compound	CB2/CB1 affinity ratio [1]	fluorescence of cells dosed with free dye [2]
SR144528	> 700	–
CC1(C)C(=CC=C2CCCC(C=CC3=[N+](CCCCCC(=O)[O-])c4ccc(S(=O)(=O)[O-])cc4C3(C)C)=C2Oc2ccc(S(=O)(=O)[O-])cc2)N(CCCCS(=O)(=O)[O-])c2ccc(S(=O)(=O)[O-])cc21.[Na+].[Na+].[Na+].[Na+] [IRDye™ 800CW acid]	–	does not produce significant fluorescence
COc1ccc(C(=O)c2c(C)n(CCN3CCOCC3)c3cc(I)ccc23)cc1 [AM630]	165	–

— patent US8367714B2, “Cannabinoid receptor targeted agent” (Vanderbilt University, priority 2007, dated 2013)
